Biological target: hCA II (Homo sapiens, UniProt P00918)
Test: stopped-flow CO2 hydrase assay, hCA II inhibition
Format: biochemical
Conditions: ratio of Ki values versus 3b

Row | Substance | fold more potent against hCA II than ferrocenyl derivative 3b [fold] | fold potency decrease against hCA II when compared to 3b [fold]
1 | [{(η^5-C5H4)–CH = N–N(H)C(O)–C6H4-4–SO2NH2}]Mn(CO)3 [2b] | 8 | 
2 | [{(η^5-C5H4)–CH = N–N(H)C(O)–CH2CH2–NH–C6H4-4–SO2NH2}]FeCp [3c] |  | 4.5
3 | [{(η^5-C5H4)–CH=N–N(H)C(O)–C6H4-4–SO2NH2}]Re(CO)3 [1b] | 8 | 
